Active and inactive are the calls of the source.
Experiments:
[1] = tested on: BG02; assay: Growth inhibition of human BG02 cells up to 100 uM; format: functional, cell-based
[2] = tested on: MCF7; assay: Growth inhibition of human MCF7 cells up to 100 uM; format: functional, cell-based
[3] = tested on: MDA-MB-231; assay: Growth inhibition of human MDA-MB-231 cells up to 100 uM; format: functional, cell-based
[4] = target: T1, Peroxisome proliferator-activated receptor gamma (Homo sapiens) (UniProt P37231); assay: Agonist activity at PPARgamma (unknown origin)
T1 sequence (whole entry): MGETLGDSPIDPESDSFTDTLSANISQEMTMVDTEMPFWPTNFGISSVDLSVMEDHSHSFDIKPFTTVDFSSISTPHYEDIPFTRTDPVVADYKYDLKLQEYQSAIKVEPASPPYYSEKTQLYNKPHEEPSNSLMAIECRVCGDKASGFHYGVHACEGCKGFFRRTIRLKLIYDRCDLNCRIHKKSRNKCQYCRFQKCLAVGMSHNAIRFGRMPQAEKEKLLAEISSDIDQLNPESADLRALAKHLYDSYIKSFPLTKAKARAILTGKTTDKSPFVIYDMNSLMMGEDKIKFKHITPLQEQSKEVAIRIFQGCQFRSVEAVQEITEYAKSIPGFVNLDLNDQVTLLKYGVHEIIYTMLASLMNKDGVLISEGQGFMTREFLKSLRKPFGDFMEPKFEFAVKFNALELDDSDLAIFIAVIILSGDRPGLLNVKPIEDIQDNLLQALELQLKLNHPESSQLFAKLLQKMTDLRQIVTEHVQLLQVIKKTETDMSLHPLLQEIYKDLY

Measured: Activity

COC(=O)[C@H]1C(=O)O[C@H]2C[C@H](C)[C@@H](CO[C@@H]3O[C@H](CO)[C@@H](O)[C@H](O)[C@H]3O)[C@@H]12
inactive: [1] | [2] | [3]

C[C@H]1C[C@@H]2OC(=O)C[C@@H]2[C@@H]1CO
inactive: all assays above

COC(=O)[C@@H]1C(=O)OC[C@H]2[C@@H]1[C@H](O)C[C@@H]2C
inactive: all assays above

C[C@H]1C[C@@H]2OC(=O)[C@@H]3C(=O)OC[C@H]1[C@@H]32
inactive: all assays above

C[C@H]1C[C@@H](O)[C@@H]2CC(=O)OC[C@@H]21
inactive: [1] | [2] | [4]

From ChEMBL document CHEMBL3352749, “An iridoid glucoside and the related aglycones from Cornus florida” (J Nat Prod, 2014)
